According to ChEMBL document CHEMBL1201862, “PubChem BioAssay data set” (2004):
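Method: 48-hour compound exposure of cells in 96-well plates, five concentrations, linear interpolation of endpoints. Here, GI50 denotes the concentration required for 50% inhibition of growth.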 Calls of active or inactive are those of the source. No stated cut-off is given here; in the data, active = GI50 up to about 1.1 µM and inactive = higher.

How the values were obtained:
Assay in all cases: NCI anticancer screen, dose series, 48 h
[1] = tested on: 786-0
[2] = tested on: A498
[3] = tested on: A549
[4] = tested on: ACHN
[5] = tested on: BT-549
[6] = tested on: CAKI-1
[7] = tested on: CCRF-CEM
[8] = tested on: COLO 205
[9] = tested on: DU-145
[10] = tested on: EKVX
[11] = tested on: HCT-116
[12] = tested on: HCT-15
[13] = tested on: HL-60
[14] = tested on: HOP-62
[15] = tested on: HOP-92
[16] = tested on: HT-29
[17] = tested on: Hs-578T
[18] = tested on: IGROV-1
[19] = tested on: K562
[20] = tested on: KM12
[21] = tested on: LOX IMVI
[22] = tested on: M14
[23] = tested on: MCF7
[24] = tested on: MDA-MB-231
[25] = tested on: MDA-MB-435
[26] = tested on: MDA-N
[27] = tested on: MOLT-4
[28] = tested on: Malme-3M
[29] = tested on: NCI-H23
[30] = tested on: NCI-H460
[31] = tested on: NCI/ADR-RES
[32] = tested on: OVCAR-3
[33] = tested on: OVCAR-4
[34] = tested on: OVCAR-5
[35] = tested on: OVCAR-8
[36] = tested on: PC-3
[37] = tested on: RPMI-8226
[38] = tested on: RXF 393
[39] = tested on: SF-268
[40] = tested on: SF-295
[41] = tested on: SF-539
[42] = tested on: SK-MEL-28
[43] = tested on: SK-MEL-2
[44] = tested on: SK-MEL-5
[45] = tested on: SK-OV-3
[46] = tested on: SN12C
[47] = tested on: SNB-19
[48] = tested on: SNB-75
[49] = tested on: SR
[50] = tested on: SW-620
[51] = tested on: T47D
[52] = tested on: TK-10
[53] = tested on: U-251
[54] = tested on: UACC-257
[55] = tested on: UACC-62
[56] = tested on: UO-31
[57] = tested on: HCC 2998
[58] = tested on: NCI-H226
[59] = tested on: NCI-H522

Measured: GI50

OC1(c2ccc(Cl)cc2)c2ccc(CN3CCCC3)cc2C2=NCCN21 (stereo unspecified)
17.3 µM: [12]
inactive: [1] 15.2 µM | [2] 13.1 µM | [3] 17.1 µM | [4] 16.7 µM | [5] 8.77 µM | [6] 16.4 µM | [7] 12.2 µM | [8] 10.8 µM | [9] 16 µM | [10] 15.2 µM | [11] 14.1 µM | [13] 12.6 µM | [14] 15.6 µM | [15] 2.53 µM | [16] 13.1 µM | [17] 12.3 µM | [18] 14.5 µM | [19] 16.1 µM | [20] 12.8 µM | [21] 13.9 µM | [22] 3.66 µM | [23] 16.8 µM | [24] 13.9 µM | [25] 10.5 µM | [26] 10.8 µM | [27] 11.6 µM | [28] 11 µM | [29] 16.9 µM | [30] 14.6 µM | [31] > 100 µM | [32] 16.1 µM | [33] 12.3 µM | [34] 16.7 µM | [35] 15.4 µM | [36] 13.3 µM | [37] 10.2 µM | [38] 8.26 µM | [39] 14.8 µM | [40] 14.6 µM | [41] 13.2 µM | [42] 10.7 µM | [43] 19 µM | [44] 10.5 µM | [45] 14.2 µM | [46] 16.4 µM | [47] 16.6 µM | [48] 3.16 µM | [49] 10.4 µM | [50] 13.3 µM | [51] 18.5 µM | [52] 4.98 µM | [53] 14 µM | [54] 12.5 µM | [55] 14.7 µM | [56] 14.1 µM

COc1ccc(/N=N/C(=N\c2ccccc2)c2ccc(N(CCC#N)CCC#N)cc2)cc1
81.3 µM: [12]
inactive: [1] 60.4 µM | [2] 67.6 µM | [3] 49.2 µM | [4] > 100 µM | [5] 47.6 µM | [6] 80.7 µM | [8] 14.1 µM | [9] 76.9 µM | [10] 27.4 µM | [57] 33.2 µM | [11] 43.4 µM | [14] 89.5 µM | [15] > 100 µM | [16] 47.9 µM | [17] 45.8 µM | [18] 23.4 µM | [19] 31.3 µM | [20] 26 µM | [22] 69.8 µM | [23] 22.5 µM | [24] 22.9 µM | [25] 56.4 µM | [26] 85.9 µM | [27] 28.8 µM | [58] > 100 µM | [29] 51.4 µM | [30] 36.5 µM | [59] 22.7 µM | [31] 95.3 µM | [32] 18 µM | [33] 45.3 µM | [34] > 100 µM | [35] 45.3 µM | [36] 40.6 µM | [37] 41 µM | [38] 19.9 µM | [39] 97.7 µM | [40] 31.2 µM | [41] 28 µM | [42] > 100 µM | [43] 30.3 µM | [44] 47.1 µM | [45] > 100 µM | [46] 88.9 µM | [47] > 100 µM | [48] 38.3 µM | [49] 25.9 µM | [50] > 100 µM | [51] 33.5 µM | [52] 61.1 µM | [53] 31.4 µM | [54] 23.8 µM | [55] 51.5 µM | [56] 80.9 µM
